≈ marks a conversion by molar mass, not a printed value.
Experiments:
[1] = Inhibition of T3SS-mediated LcrQ secretion in Yersinia pseudotuberculosis assessed as yopE promoter-luciferase gene expression by luciferase reporter gene assay
[2] = Inhibition of phospholipase A2 activity of Pseudomonas aeruginosa N-terminal His6-tagged ExoU expressed in Escherichia coli BL21 cells using arachidonic TEPC as substrate by Ellman's method
[3] = Inhibition of T3SS-mediated SipB secretion in Salmonella typhimurium; design: species or system Salmonella enterica subsp. enterica serovar Typhimurium
[4] = Inhibition of T3SS-mediated ExoU secretion in Pseudomonas aeruginosa PA103
[5] = Inhibition of T3SS-mediated YopE secretion in Yersinia pestis KIM19 by ELISA
[6] = Inhibition of T3SS-mediated carboxypeptidase G2-SopE2-HA secretion in Salmonella typhimurium by fluorescence analysis; design: species or system Salmonella enterica subsp. enterica serovar Typhimurium
[7] = Inhibition of Escherichia coli T3SS-mediated hemolysis of erythrocytes
[8] = Inhibition of Escherichia coli T3SS-mediated hemolysis of sheep erythrocytes by microplate reader analysis

Work on O=C(N/N=C/c1ccc(O)cc1O)c1ccc([N+](=O)[O-])cc1 yielded an IC50 [1] of 25 µM.

Work on NC(=O)c1cccc2c1-c1ccccc1C2 yielded an IC50 [2] of 7 µM.

Work on O=C(O)C(Cc1ccc(Cl)cc1)Nc1nc(-c2ccc(-c3ccccc3)cc2)nc(N2CCN(c3ccccn3)CC2)n1 (configuration not stated) yielded an IC50 [3] of 20 µM and an IC50 [4] of over 100 µM.

Compound O=C(N/N=C/c1cc(Br)cc(Br)c1O)c1cccnc1 has an IC50 [1] of 25 µM.

Compound CC(=O)Nc1ccc(N2C(=O)c3ccc(C(=O)OC(C)C(=O)c4c[nH]c5ccccc45)cc3C2=O)cc1 (configuration not stated) has an IC50 [5] of 20 µM.

Work on O=C(Cc1csc(NC(=O)c2ccccc2)n1)Nn1cnc2scc(-c3ccco3)c2c1=O yielded an IC50 [5] of 20 µM.

Work on O=C(N/N=C/c1cc(Cl)cc(Cl)c1O)c1ccccc1 yielded an IC50 [1] of 25 µM.

Compound O=C(N/N=C/c1cc(Br)cc(Br)c1O)c1ccc([N+](=O)[O-])cc1 has an IC50 [6] of 5.5 µM and an IC50 [1] of 15 µM.

C/C=C\C=C\[C@@H]1O[C@](O)([C@H](CC)C(=O)NC/C=C/C=C(\C)[C@@H](OC)[C@@H](C)[C@@H]2O[C@H](/C=C/C=C/C=C(\C)C(=O)c3c(O)ccn(C)c3=O)[C@H](O)[C@@H]2O)[C@H](O)[C@H](O)C1(C)C showed an IC50 [7] of 1.5 µg/mL (≈ 1.85 µM).

For CC(C)[C@H](NC(=O)[C@H](C)NC(=O)[C@@H](N)[C@@H](N)CC[C@@H](O)[C@@H](O)C(O)[C@@H]1CN(C(N)=O)C(=N)N1)C(=O)O (some centres not stated), the IC50 [8] was 0.02 µM.
